Measurements reported in patent US9718823B2, “2, 6-Di-nitrogen-containing substituted purine derivative, and preparation method, pharmaceutical composition and use thereof” (Zhejiang Medicine Co., Ltd. Xinchang Pharmaceutical Factory, priority 2013, dated 2017).
pIC50: −log10 of the molar value. Where a name gives a salt, the structure may show the parent alone. Read-outs that look alike come from different tables or passages of the source.

Columns and labels:
[1] = tested on: U87MG human glioblastoma Multiforme cell strain; assay: Antitumor cell proliferation in vitro, CCK-8 detection kit, U87MG; format: cell-based; details: U-87 MG, 72 h, U-87MG cells, 1st and 2nd test where printed
Procedure: (§1) The half inhibitory concentration IC50 of proliferation of three kinds of tumor cell strain (U87MG, PC-3, BT474) for 12 candidate compounds of the present invention is detected by CCK-8 detection kits.
U87MG human glioblastoma Multiforme cell strain (cell bank of Chinese Academy of Sciences)
(§2) The studied compounds are dissolved by DMSO to make the final concentration 10 mM.
(§3) • a) Collecting the cells in logarithmic phase, counting, and resuspending the cells with complete medium. • b) Adjusting the concentration of cells to a suitable concentration, inoculating in 96 well plates, each well is inoculated to 100 μl cell suspension.
(§4) c) incubating cells for 24 hours in a 5% CO2 incubator at temperature of 37° C., under the condition of 100% relative humidity.
(§5) a) The cells in logarithmic phase is collected, counted, resuspended with complete medium. The concentration of cells is adjusted to a suitable concentration (determined in accordance with the optimizable test results of cell density), and the cells is inoculated in 96 well plates, wherein each well is inoculated 100 μl cell suspension, Cells are incubated for 24 hours in 5% CO2 incubator at temperature of 37° C. under the condition of 100% relative humidity.
(§6) b) The test compounds are diluted to 500 μM with culture medium, then diluted in series eight times. […] as 25 μl/well. The final concentrations of the compounds are diluted from 100 μM to 0 μM, with 4 times dilution, and there are a total of 10 concentration points.
(§7) c) Cells are incubated for 72 hours in 5% CO2 incubator at temperature of 37° C. under the condition of 100% relative humidity.
(§8) d) The culture medium is aspirated and discarded, and complete medium containing 10% CCK-8 is incubated in a incubator at 37° C. for 2˜4 hours.
(§9) e) After shocking gently, the absorbance of the culture medium is measured at 450 nm wavelength on SpectraMax M5 Microplate Reader, with the absorbance at 650 nm as reference, to calculate the inhibition rate.

[2] = molecular target: T1, PDGFR β enzyme (Homo sapiens, UniProt P09619); assay: Inhibitory activity to PDGFR β enzyme, HTRF kinEASE TK kit; format: biochemical
T1 construct: purchased Invitrogen P3082
Outline: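 Recombinant human PDGFRβ phosphorylating TK-substrate in kinase buffer containing MgCl2, MnCl2, DTT and SEB, with ATP. Phosphorylation detected by HTRF using TK-Ab-Cryptate and Sa-XL665.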

[3] = tested on: PC-3 human prostate cancer cell strain; assay: Antitumor cell proliferation in vitro, CCK-8 detection kit, PC-3; format: cell-based; details: Homo sapiens, PC-3, 72 h, PC-3 cells, 1st and 2nd test where printed
Procedure: as §1
PC-3 human prostate cancer cell strain (cell bank of Chinese Academy of Sciences)
as §2, §3, §4, §5, §6, §7, §8, §9

[4] = molecular target: T2, PI3Kδ (Homo sapiens, UniProt O00329); assay: Inhibitory activity to PI3K δ, PI 3-Kinase (human) HTRF Assay kit; format: biochemical
T2 construct: purchased Millipore 14-604
Outline: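 Inhibition of human PI3Kδ was assessed with the Millipore PI 3-Kinase (human) HTRF Assay kit. PI3Kδ was screened at 2 ng/well, diluted in 2×PIP2 operating fluid. Reactions were 20 μL and contained 100 μM ATP. Stop solution was Stop A and Stop B mixed 3:1. Detection solution was DM C, DM A and DM B mixed 18:1:1. Compounds were prepared from DMSO stocks, and percent inhibition was reported.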

[5] = molecular target: T3, PI3 K γ (Homo sapiens, UniProt P48736); assay: Inhibitory activity to PI3K γ, PI 3-Kinase (human) HTRF Assay kit; format: biochemical; details: for Inhibition rate % to PI3 K γ: dihydrate di-methanesulfonate
T3 construct: purchased Biology, Medicilon
Outline: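 HTRF kinase assay with PI3Kγ at 80 ng/well, 10 μM PIP2 and 100 μM ATP (both final) in DTT-containing reaction buffer, 1% DMSO. Preliminary screen at 10 μM and 1 μM compound, followed by IC50 determination for selected compounds.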

[6] = 10 μM (Table 7), read-out: Inhibition rate % to PI3Kδ

T3 sequence (P48736 whole entry): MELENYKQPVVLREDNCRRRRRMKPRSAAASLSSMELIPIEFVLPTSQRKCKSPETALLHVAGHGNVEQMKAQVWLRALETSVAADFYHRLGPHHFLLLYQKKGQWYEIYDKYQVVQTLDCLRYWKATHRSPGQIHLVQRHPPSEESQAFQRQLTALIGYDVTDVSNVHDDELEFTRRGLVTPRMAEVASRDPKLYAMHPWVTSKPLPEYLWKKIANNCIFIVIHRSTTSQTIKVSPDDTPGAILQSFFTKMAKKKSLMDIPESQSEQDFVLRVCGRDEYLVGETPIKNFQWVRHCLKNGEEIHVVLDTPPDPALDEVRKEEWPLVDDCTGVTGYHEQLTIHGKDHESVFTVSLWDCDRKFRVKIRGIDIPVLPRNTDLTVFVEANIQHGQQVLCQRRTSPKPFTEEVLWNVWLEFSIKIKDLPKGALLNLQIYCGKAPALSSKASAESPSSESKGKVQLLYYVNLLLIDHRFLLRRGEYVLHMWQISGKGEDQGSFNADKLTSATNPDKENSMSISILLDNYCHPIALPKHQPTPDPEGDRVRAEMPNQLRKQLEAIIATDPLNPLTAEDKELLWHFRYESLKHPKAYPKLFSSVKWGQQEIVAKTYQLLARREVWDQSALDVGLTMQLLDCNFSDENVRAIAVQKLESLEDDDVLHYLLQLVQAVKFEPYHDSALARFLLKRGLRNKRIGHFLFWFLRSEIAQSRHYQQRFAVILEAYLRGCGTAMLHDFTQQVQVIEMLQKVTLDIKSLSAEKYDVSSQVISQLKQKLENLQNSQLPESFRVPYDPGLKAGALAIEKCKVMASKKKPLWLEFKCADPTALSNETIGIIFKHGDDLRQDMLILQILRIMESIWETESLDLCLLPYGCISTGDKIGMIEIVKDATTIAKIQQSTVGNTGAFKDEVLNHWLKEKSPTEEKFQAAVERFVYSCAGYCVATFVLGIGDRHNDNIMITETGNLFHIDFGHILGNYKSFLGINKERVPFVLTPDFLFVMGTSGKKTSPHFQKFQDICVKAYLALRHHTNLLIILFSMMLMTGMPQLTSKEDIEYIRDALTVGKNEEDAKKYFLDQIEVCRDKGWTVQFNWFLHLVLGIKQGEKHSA
T2 sequence (O00329 whole entry): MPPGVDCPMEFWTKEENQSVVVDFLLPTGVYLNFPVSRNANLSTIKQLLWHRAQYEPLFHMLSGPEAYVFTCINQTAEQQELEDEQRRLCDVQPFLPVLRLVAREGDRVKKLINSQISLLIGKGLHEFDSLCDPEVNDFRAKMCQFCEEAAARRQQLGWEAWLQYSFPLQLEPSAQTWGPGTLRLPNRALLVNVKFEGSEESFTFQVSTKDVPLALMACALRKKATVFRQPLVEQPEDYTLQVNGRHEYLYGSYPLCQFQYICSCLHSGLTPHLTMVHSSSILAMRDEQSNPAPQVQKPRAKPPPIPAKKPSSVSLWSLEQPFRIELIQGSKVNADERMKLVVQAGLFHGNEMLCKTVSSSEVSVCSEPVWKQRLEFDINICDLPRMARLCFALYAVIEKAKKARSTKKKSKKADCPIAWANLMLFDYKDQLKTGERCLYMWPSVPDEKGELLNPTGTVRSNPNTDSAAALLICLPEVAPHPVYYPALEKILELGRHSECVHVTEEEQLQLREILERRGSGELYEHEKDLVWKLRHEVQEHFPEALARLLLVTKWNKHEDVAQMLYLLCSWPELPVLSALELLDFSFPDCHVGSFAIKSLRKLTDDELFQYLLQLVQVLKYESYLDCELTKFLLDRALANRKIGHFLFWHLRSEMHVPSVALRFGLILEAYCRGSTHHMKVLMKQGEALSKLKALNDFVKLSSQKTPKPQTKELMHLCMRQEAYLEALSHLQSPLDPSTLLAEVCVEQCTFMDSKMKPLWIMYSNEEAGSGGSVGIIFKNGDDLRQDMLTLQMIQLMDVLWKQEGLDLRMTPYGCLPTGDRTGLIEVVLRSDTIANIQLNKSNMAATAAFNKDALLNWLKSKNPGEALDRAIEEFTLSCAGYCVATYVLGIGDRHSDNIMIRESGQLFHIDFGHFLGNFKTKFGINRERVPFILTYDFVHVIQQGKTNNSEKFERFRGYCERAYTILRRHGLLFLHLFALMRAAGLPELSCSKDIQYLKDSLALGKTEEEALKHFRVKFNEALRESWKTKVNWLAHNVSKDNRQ
T2 sequence (P27986 whole entry partner): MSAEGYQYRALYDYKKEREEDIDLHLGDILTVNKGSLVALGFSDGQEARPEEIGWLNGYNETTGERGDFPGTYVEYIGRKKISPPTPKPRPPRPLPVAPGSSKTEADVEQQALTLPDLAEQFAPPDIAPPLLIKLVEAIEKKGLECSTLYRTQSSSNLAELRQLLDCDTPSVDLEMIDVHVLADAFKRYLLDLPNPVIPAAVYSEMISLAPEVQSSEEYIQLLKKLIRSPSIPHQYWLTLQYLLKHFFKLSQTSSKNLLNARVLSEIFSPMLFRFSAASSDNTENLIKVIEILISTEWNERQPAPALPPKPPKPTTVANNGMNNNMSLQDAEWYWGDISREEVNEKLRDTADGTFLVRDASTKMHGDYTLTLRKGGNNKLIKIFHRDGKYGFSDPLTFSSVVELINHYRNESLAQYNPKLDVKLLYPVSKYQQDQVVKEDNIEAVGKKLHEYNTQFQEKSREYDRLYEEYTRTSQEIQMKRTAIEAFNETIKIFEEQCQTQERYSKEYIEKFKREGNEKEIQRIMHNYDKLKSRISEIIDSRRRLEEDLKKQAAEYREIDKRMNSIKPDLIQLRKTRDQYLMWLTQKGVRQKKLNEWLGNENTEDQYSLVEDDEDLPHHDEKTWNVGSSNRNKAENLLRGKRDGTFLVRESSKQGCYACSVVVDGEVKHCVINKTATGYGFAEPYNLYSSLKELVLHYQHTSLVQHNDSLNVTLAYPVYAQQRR
T1 sequence (P09619 33-1106): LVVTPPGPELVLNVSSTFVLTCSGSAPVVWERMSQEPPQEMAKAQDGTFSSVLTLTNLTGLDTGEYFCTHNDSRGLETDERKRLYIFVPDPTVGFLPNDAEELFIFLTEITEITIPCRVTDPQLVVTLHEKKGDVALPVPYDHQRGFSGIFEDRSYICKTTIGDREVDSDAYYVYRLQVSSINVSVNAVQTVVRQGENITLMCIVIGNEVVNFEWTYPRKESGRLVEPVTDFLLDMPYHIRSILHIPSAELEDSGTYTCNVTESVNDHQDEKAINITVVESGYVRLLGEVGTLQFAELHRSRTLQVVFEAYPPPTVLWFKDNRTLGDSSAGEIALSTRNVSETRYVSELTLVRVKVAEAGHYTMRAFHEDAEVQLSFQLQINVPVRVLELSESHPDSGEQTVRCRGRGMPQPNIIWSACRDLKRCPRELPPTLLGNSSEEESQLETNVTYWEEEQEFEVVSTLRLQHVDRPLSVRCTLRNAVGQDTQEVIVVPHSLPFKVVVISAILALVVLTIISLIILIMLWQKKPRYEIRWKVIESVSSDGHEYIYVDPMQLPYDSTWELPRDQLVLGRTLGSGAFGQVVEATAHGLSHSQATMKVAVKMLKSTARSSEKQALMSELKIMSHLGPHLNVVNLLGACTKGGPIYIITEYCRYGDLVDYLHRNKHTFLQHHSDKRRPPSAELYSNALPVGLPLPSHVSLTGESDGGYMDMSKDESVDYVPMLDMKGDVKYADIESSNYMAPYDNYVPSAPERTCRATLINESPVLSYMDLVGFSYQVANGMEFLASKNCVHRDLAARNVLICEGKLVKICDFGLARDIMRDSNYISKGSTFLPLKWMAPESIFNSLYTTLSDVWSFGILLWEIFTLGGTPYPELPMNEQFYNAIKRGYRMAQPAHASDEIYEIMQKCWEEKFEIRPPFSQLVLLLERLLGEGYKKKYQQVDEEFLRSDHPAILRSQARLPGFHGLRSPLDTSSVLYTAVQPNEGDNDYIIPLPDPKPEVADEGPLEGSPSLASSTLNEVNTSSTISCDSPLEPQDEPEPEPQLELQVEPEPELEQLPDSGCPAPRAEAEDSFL

Row | pIC50 [1] | Inhibition rate % (PDGFR β) ([2]; 1 μM, dihydrate di-methanesulfonate) [%] | inhibition at 10 µM ([2]; 10 μM, read-out: Inhibition rate % (PDGFR β)) [%] | Inhibition rate % to PI3Kδ ([4]; 1 μM (Table 7), dihydrate di-methanesulfonate, 1 µM) [%] | Inhibition rate % to PI3 K γ ([5]; 1 μM) [%] | Inhibition rate % to PI3 K γ ([5]; 10 μM) [%] | Compound | pIC50 [3] | inhibition at 10 µM [4, 6] [%] | inhibition at 0.4 µM ([4]; 0.4 μM (Table 8), read-out: Inhibition rate % to PI3K delta) [%] | inhibition at 1 µM ([4]; 1 μM (Table 7), read-out: Inhibition rate % to PI3Kδ) [%] | inhibition at 10 µM ([4]; 10 μM (Table 8), read-out: Inhibition rate % to PI3K delta) [%] | inhibition at 2 µM ([4]; read-out: Inhibition rate % to PI3K delta) [%] | inhibition at 1 µM ([5]; 1 μM, read-out: Inhibition rate % to PI3 K γ) [%] | inhibition at 10 µM ([5]; 10 μM, read-out: Inhibition rate % to PI3 K γ) [%]
1 | 5.09 | −10.96 | 13.8 | 96.32 | 29.82 | 81.29 | c1ccc(-c2ccnc3ccc(Nc4nc(NC5CC5)c5nc[nH]c5n4)cc23)cc1 [MED1007-91, N6-cyclopropyl-N2-(4-phenylquinoline-6-yl)-9H-purine-2,6-diammonium salt dihydrate di-methanesulfonate] | 6.18 | 115 |  |  |  |  |  | 
2 |  |  |  |  |  |  | COC[C@H]1OC(=O)c2coc3c2[C@@]1(C)C1=C(C3=O)[C@@H]2CCC(=O)[C@@]2(C)C[C@H]1OC(C)=O [Wortmannin, reference compound] | 4.67 | 108 | 93.4 | 95.4 | 105 | 109 | 105 | 101
